Results: ChEMBL document CHEMBL5214914, “Novel strategies to improve tumour therapy by targeting the proteins MCT1, MCT4 and LAT1” (Eur J Med Chem, 2021)
Each block holds one compound with its values, some of them ahead of it.

Assays:
[1] = Drug metabolism in Sprague-Dawley rat plasma at 10 uM measured after 8 hrs; assay type: ADME, cell-free, Sprague-Dawely; conditions: read-out: Drug metabolism
Raji = assay: Cytotoxicity against human Raji cells; assay type: functional, cell-based
MCF7 = assay: Antiproliferative activity against human MCF7 cells assessed as inhibition of cell growth; assay type: functional, cell-based
[2] = biological target: T1, Large neutral amino acids transporter small subunit 1 (Homo sapiens, UniProt Q01650); assay: Inhibition of LAT1 in human MCF7 cells assessed as inhibition of leucine uptake; assay type: cell-based
T1 sequence (Q01650 whole entry): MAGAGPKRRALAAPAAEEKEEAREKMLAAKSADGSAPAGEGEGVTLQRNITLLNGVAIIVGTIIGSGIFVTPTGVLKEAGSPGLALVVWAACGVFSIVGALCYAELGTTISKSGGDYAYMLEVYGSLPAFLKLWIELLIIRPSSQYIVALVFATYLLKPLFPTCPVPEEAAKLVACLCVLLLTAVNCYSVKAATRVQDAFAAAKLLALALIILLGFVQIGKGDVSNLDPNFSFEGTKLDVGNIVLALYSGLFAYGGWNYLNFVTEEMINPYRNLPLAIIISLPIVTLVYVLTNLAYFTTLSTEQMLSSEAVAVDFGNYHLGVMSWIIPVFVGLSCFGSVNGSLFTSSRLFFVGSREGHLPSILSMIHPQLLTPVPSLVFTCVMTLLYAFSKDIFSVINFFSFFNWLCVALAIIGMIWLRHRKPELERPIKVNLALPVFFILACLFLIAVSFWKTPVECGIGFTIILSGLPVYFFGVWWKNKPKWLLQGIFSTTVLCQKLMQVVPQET

BXPC-3 = assay: Antitumor activity against human BXPC-3 cells xenografted in ip dosed mouse assessed as prolongation of animal's mean life span; assay type: functional
MIA PaCa-2 = assay: Antitumor activity against human MIA PaCa-2 cells xenografted in ip dosed mouse assessed as prolongation of animal's mean life span; assay type: functional
[3] = biological target: T2, Monocarboxylate transporter 1 (Rattus norvegicus, UniProt P53987); assay: Inhibition of MCT1 in rat RBE4 cells assessed as reduction in [14C]lactate uptake measured after 15 mins by liquid scintillation counting analysis; assay type: cell-based
T2 sequence (P53987 whole entry): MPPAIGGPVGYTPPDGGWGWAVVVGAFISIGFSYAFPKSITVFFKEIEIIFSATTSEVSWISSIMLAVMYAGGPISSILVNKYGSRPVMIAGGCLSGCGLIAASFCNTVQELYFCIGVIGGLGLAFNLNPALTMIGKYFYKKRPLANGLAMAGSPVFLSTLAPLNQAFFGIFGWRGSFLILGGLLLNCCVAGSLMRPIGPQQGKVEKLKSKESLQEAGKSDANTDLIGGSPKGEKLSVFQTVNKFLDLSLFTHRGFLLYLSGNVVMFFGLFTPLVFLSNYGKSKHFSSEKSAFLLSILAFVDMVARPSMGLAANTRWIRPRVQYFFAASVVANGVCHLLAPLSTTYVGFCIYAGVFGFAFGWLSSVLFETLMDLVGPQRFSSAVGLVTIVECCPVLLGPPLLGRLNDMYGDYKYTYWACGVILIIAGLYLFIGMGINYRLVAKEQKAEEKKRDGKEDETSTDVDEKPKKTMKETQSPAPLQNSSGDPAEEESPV

[4] = biological target: T1, Large neutral amino acids transporter small subunit 1; assay: Inhibition of LAT1 (unknown origin) expressed in S2 cells assessed as inhibition of [14C]phenylalanine uptake at 50 uM; assay type: cell-based
[5] = biological target: T1, Large neutral amino acids transporter small subunit 1; assay: Inhibition of LAT1 (unknown origin) expressed in astrocytes assessed as inhibition of [14C]phenylalanine uptake at 50 uM; assay type: cell-based; conditions: Astrocyte
[6] = Half life in human; assay type: ADME

- metabolised at 8 h, 10 µM [1]: 20%
Compound: C[C@@H](O)[C@H](Nc1ccn([C@@H]2O[C@H](CO)[C@@H](O)C2(F)F)c(=O)n1)C(=O)O

Compound: CC(C)Cc1nn(C)c(=O)c2c(SCCCO)n(Cc3cnc(NCCCCCNC(=O)[C@H](N)CCC(N)=O)c4ccccc34)cc12
- EC50 (Raji): 0.16 nM

Compound: CC(C)Cc1nn(C)c(=O)c2c(SCCCO)n(Cc3ccc(C#CCCCNC(=O)[C@H](N)CCC(N)=O)c4ccccc34)cc12
- EC50 (Raji): 4 nM

Compound: CC(C)Cc1nn(C)c(=O)c2c(SCCCO)n(Cc3ccc(C#CCCCOc4ccc(C[C@H](N)C(=O)O)cc4)c4ccccc34)cc12
- EC50 (Raji): 0.8 nM

- IC50 (MCF7): 124000 nM
- IC50 [2]: 18200 nM
Compound: CNC(=O)COc1ccc(C2=C(C#N)C3N=C4C=CC=CC4N3C(NC(=O)c3cccc(C[C@H](N)C(=O)O)c3)=C2C#N)cc1 (stereo not given in full)

Compound: Nc1cc(COc2c(Cl)cc(CC(N)C(=O)O)cc2Cl)c2oc(-c3ccccc3)nc2c1 (stereo not given)
- ILS (BXPC-3): 10 days
- ILS (MIA PaCa-2): 14 days

Compound: CC(C)Cc1nn(C)c(=O)c2c(SCCCO)n(Cc3cnc(NCCCCCN)c4ccccc34)cc12
- EC50 (Raji): 0.8 nM

Compound: N#C/C(=C\c1ccc(O)cc1)C(=O)O [alpha-CYANO-4-HYDROXYCINNAMIC ACID]
- IC50 [3]: 281 nM

- inhibition [4]: 90%
- inhibition [5]: 90%
Compound: NC(Cc1cc(I)c(Oc2ccc(O)c(I)c2)c(I)c1)C(=O)O (stereo not given)

- half-life [6]: 9 min
Compound: Nc1ccn([C@@H]2O[C@H](CO)[C@@H](O)C2(F)F)c(=O)n1 [GEMCITABINE]

- IC50 [3]: 66 nM
Compound: CC(C)c1ccc(/C=C(\C#N)C(=O)O)cc1

Compound: CC(C)Cc1nn(C)c(=O)c2c(SCCCO)n(Cc3cc(NCCCCCNC(=O)[C@H](N)CCC(N)=O)nc4ccccc34)cc12
- EC50 (Raji): 0.8 nM
